Data from US20250135026A1, “Antibody Drug Conjugates” (BeiGene Switzerland GmbH, priority 2021, published 2025).
Like-named read-outs stand apart in the source and are kept apart here.

Legend:
A375 = test: Compounds cellular killing (Cell Titer-Glo, 6 days, 2D); assay type: cell-based, human; details: for cell-killing activity compared with Dxd: A375
Method: (§1) The cell line was grown in a humidified 5% CO2 atmosphere at 37° C., and was regularly tested for the presence of mycoplasma with MycoAlert™ PLUS Mycoplasma Detection Kit (Lonza, LT07-710).
(§2) Incubation at 37° C., 5% CO2, overnight.
(§3) Adding the fresh growth-medium containing the varying concentrations of compounds, 50 ul/well.
(§4) Incubation at 37° C., 5% CO2, 6 days.
(§5) The cell viability detected by Cell Titer-Glo (Promega, G7573). Add 70 µL/well of CellTiter-Glo® Reagent in each well.
(§6) Allow the plates to incubate at room temperature for 10 minutes to stabilize luminescent signal.
(§7) Analyze with Microplate Reader.

Calu-6 = test: as above; assay type: cell-based; details: for cell-killing activity compared with Dxd: Calu-6
Method: as §1, §2, §3, §4, §5, §6, §7

HCC1569 = test: Payload cellular killing, 2D; assay type: cell-based; details: HCC1569, 2D (HER3 +++)
MDA-MB-453 = test: Payload cellular killing, 2D; assay type: cell-based, human; details: MDA-MB-453, 2D (HER3 +++)
Method: as §1

cathepsin B = cathepsin B (Homo sapiens, UniProt P07858); test: Cathepsin B mediated rhodamine release; assay type: biochemical; details: 150 nM, 0.3 unit activated cathepsin B, pH 5.5, 37° C., FIG. 21
Method: CTSB was activated by incubation at ambient temperature for 15 min with 30 mM dithiothreitol and 15 mM EDTA at PH5.5.
Reaction buffer preparation: 25 mM sodium acetate & 1 mM EDTA, PH5.5.
Adding 150 nM NAcCys-13 & NAcCys-14 & NAcCys-15 & NAcCys-16 & NAcCys-17 and 0.3 unit activated cathepsin B mixture according to the experiment template.
The reaction mixtures were incubated at 37° C. immediately in the reader, then start reading using the kinetic set-up described. (TECAN SPARK: excitation/emission: 485/520 nm) (120 cycles, every one min) Gain Manual: 77%
Data analysis by GraphPad Prism 9 is illustrated in FIG. 21.

[1] = Table 28, payload, A375, 2D (Her3 ++)
[2] = Table 29, payload, A375, 6d, 2D (Her3++)
[3] = Table 28, payload, Calu-6, 2D (HER3 neg.)
[4] = Table 29, payload, Clau6, 6d, 2D (Her3 neg)

In the case of `CC[C@@]1(O)C(=O)OCc2c1cc1n(c2=O)Cc2c-1nc1cc(F)c(C)c3c1c2[C@@H](NC(=O)C(C)(F)CO)CC3` (single isomer, unassigned) [Example 68], the “cell-killing activity compared with Dxd” value (A375) is reported as “less potent than Dxd”, the Emax (A375; Homo sapiens, A-375, Table 21, A375, read-out: Emax) is reported as 99.9% and the EC50 (A375; Table 21, A375) is reported as 4.5 nM. The “cell-killing activity compared with Dxd” value (Calu-6) was “less potent than Dxd”, the Emax (Calu-6; Homo sapiens, Calu-6, Table 21, Calu-6, read-out: Emax) was 98.5% and the EC50 (Calu-6; Table 21, Calu-6) was 1.8 nM.

`CC[C@@]1(O)C(=O)OCc2c1cc1n(c2=O)Cc2c-1nc1cc(F)c(C)c3c1c2[C@@H](NC(=O)C(C)(F)CO)CC3` (single isomer, unassigned) [Example 69] was tested, and the “cell-killing activity compared with Dxd” value (A375) was “stronger cell-killing activity than Dxd”, the EC50 (A375; Table 21, A375) was 1.5 nM and the Emax (A375; Table 21, A375) was 99.9%. For the same compound, the “cell-killing activity compared with Dxd” value (Calu-6) was “stronger cell-killing activity than Dxd”, the EC50 (Calu-6; Table 21, Calu-6) was 0.6 nM and the Emax (Calu-6; Table 21, Calu-6) was 98.2%.

`CC[C@@]1(O)C(=O)OCc2c1cc1n(c2=O)Cc2c-1nc1cc(F)c(C)c3c1c2[C@@H](NC(=O)C(C)(F)CO)CC3` (single isomer, unassigned) [Isomer 1 of Compounds 68 & 69] was tested, and the Emax (A375; Homo sapiens, A-375, Table 29, payload, A375, 6d, 2D (Her3++), read-out: Emax) was 99.9%, the EC50 (A375; [1]) was 4.5 nM and the EC50 (A375; [2]) was 4.5 nM. The Emax (Calu-6; Homo sapiens, Calu-6, Table 28, payload, Calu-6, 2D (HER3 neg.), read-out: Emax) was 98.5%, the Emax (Calu-6; Homo sapiens, Calu-6, […], Table 29, payload, Clau6, 6d, 2D (Her3 neg), read-out: Emax) was 98.5% and the EC50 (Calu-6; [3]) was 1.8 nM. It also gave an EC50 (Calu-6; [4]) of 1.8 nM, an Emax (HCC1569; Homo sapiens, HCC1569, Table 28, payload, read-out: Emax) of 92% and an EC50 (HCC1569; Table 28, payload) of 3.2 nM. It also gave an EC50 (MDA-MB-453; Homo sapiens, MDA-MB-453, Table 28, payload) of 2.8 nM and an Emax (MDA-MB-453; Homo sapiens, MDA-MB-453, Table 28, payload, read-out: Emax) of 97.9%.

Compound `CC[C@@]1(O)C(=O)OCc2c1cc1n(c2=O)Cc2c-1nc1cc(F)c(C)c3c1c2[C@@H](NC(=O)C(C)(F)CO)CC3` (single isomer, unassigned) [Isomer 2 of Compounds 68 & 69] has an EC50 (A375; [1]) of 1.5 nM, an Emax (A375; [1]) of 99.9% and an EC50 (A375; [2]) of 1.5 nM. It also gave an Emax (A375; [2]) of 99.9%, an EC50 (Calu-6; [3]) of 0.6 nM and an Emax (Calu-6; [3]) of 98.2%. For the same compound, the EC50 (Calu-6; [4]) was 0.6 nM, the Emax (Calu-6; [4]) was 98.2% and the EC50 (HCC1569; Table 28, payload) was 0.7 nM. The Emax (HCC1569; Table 28, payload) was 91.6%, the EC50 (MDA-MB-453; Table 28, payload) was 1.5 nM and the Emax (MDA-MB-453; Table 28, payload) was 98.6%.

With `CCOC(=O)Nc1ccc2c(c1)Oc1cc(NC(=O)OCc3ccc(NC(=O)[C@H](CCCNC(N)=O)NC(=O)[C@@H](NC(=O)CCOCCOCCOCCN4C(=O)CC(SC[C@H](N)C(=O)O)C4=O)C(C)C)cc3)ccc1C21OC(=O)c2ccccc21` (stereo partly shown) [NAcCys-13, reference compound] the “cathepsin B mediated rhodamine release rate, rank” value (cathepsin B) was “NAcCys-15˜NAcCys-13 (benchmark)>NAcCys-14>NAcCys-17”.

For `CCOC(=O)Nc1ccc2c(c1)Oc1cc(NC(=O)OCc3ccc(NC(=O)[C@H](CCCNC(N)=O)NC(=O)[C@@H](NC(=O)[C@H](CNS(N)(=O)=O)NC(=O)CCOCCOCCOCCN4C(=O)CC(SC[C@H](NC(C)=O)C(=O)O)C4=O)C(C)C)cc3)ccc1C21OC(=O)c2ccccc21` (stereo partly shown) [NAcCys-14], the “cathepsin B mediated rhodamine release rate, rank” value (cathepsin B) was “NAcCys-15˜NAcCys-13 (benchmark)>NAcCys-14>NAcCys-17”.
